Laboratory results: PubChem BioAssay (NCI)
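Method: 48-hour compound exposure of cells in 96-well plates, five concentrations, linear interpolation of endpoints. TGI denotes the concentration required for complete inhibition of growth.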

Assays:
Assay in all cases: NCI-60 cell line screen, 48 h
[1] = system: NCI-H460 lung
[2] = system: HCT-116 colon
[3] = system: HCT-15 colon
[4] = system: MDA-N
[5] = system: UACC-257 melanoma
[6] = system: RPMI-8226 leukemia
[7] = system: NCI/ADR-RES ovarian
[8] = system: M14 melanoma
[9] = system: HT29 colon
[10] = system: SK-MEL-5 melanoma
[11] = system: SK-OV-3 ovarian
[12] = system: SW-620 colon
[13] = system: TK-10 renal
[14] = system: KM12 colon
[15] = system: SF-295 CNS
[16] = system: SNB-75 CNS
[17] = system: T-47D breast
[18] = system: NCI-H23 lung
[19] = system: CCRF-CEM leukemia
[20] = system: OVCAR-8 ovarian
[21] = system: U251 CNS
[22] = system: IGROV1 ovarian
[23] = system: HCC-2998 colon
[24] = system: A549 NSCLC
[25] = system: SF-539 CNS
[26] = system: SN12C renal
[27] = system: MDA-MB-231 breast
[28] = system: SK-MEL-28 melanoma
[29] = system: 786-0 renal
[30] = system: MDA-MB-435
[31] = system: ACHN renal
[32] = system: NCI-H522 lung
[33] = system: MCF7 breast
[34] = system: HOP-92 NSCLC
[35] = system: MALME-3M melanoma
[36] = system: K-562 leukemia
[37] = system: LOX IMVI melanoma
[38] = system: COLO 205 colon
[39] = system: OVCAR-4 ovarian
[40] = system: MOLT-4 leukemia
[41] = system: RXF 393 renal
[42] = system: SNB-19 CNS
[43] = system: EKVX NSCLC
[44] = system: UO-31 renal
[45] = system: HS 578T breast
[46] = system: A498 renal
[47] = system: CAKI-1 renal
[48] = system: NCI-H226 lung
[49] = system: OVCAR-5 ovarian
[50] = system: DU-145 prostate
[51] = system: SR leukemia
[52] = system: SF-268 CNS
[53] = system: HL-60(TB) leukemia
[54] = system: OVCAR-3 ovarian
[55] = system: UACC-62 melanoma
[56] = system: HOP-62 NSCLC
[57] = system: BT-549 breast
[58] = system: PC-3 prostate

Measured: TGI

Nc1c(N2CCCCC2)c(=O)nc2[nH]/c(=C\c3ccccc3)c(=O)n12
not listed: [54] | [55] | [56] | [57] | [58]
> 100 µM: all other assays above

O=C1CN(c2ccc(Cl)cc2)C(=O)CN1NCNN1CC(=O)N(c2ccc(Cl)cc2)CC1=O
not listed: [7] | [17] | [27] | [36] | [37] | [48]
> 100 µM: all other assays above
